Results taken from patent US20110230472A1, “RING-FUSED AZOLE DERIVATIVE HAVING PI3K-INHIBITING ACTIVITY” (Shionogi & Co., Ltd., priority 2008, published 2011).

How the values were obtained:
CYP1A2 = molecular target: T1, CYP1A2 (Homo sapiens, UniProt P05177); assay: CYP inhibition test, pooled human liver microsome, CYP1A2; assay type: in vitro ADME; settings: O-de-ethylation of 7-ethoxyresorufin
T1 construct: enzyme: pooled human liver microsome 0.2 mg protein/mL; from tissue; host or cells: pooled human liver microsome
T1 sequence (P05177 1-516): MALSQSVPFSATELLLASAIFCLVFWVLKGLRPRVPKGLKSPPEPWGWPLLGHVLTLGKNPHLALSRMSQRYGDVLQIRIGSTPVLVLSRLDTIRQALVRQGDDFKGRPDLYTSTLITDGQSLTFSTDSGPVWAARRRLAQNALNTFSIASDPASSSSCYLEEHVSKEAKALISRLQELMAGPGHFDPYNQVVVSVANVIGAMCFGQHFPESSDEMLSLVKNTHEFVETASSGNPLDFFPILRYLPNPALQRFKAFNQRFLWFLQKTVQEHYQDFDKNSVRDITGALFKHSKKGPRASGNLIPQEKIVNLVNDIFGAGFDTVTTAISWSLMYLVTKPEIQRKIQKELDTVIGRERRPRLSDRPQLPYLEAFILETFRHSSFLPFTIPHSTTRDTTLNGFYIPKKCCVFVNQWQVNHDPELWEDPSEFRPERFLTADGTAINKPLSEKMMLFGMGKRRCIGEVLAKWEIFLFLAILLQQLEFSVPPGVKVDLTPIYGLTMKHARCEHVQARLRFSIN
Text: (§1) O-de-ethylation of 7-ethoxyresorufin (CYP1A2), methyl-hydroxylation of tolbutamide (CYP2C9), 4′-hydroxylation of mephenyloin (CYP2C19), O-demethylation of dextromethorphan (CYP2D6), and hydroxylation of terfenadine (CYP3A4), which are typical substrate for metabolic reactions of human main CYP5 molecular species (CYP1A2, 2C9, 2C19, 2D6, and 3A4), were adopted as indexes.
(§2) The reaction conditions are as follows: substrate: 0.5 μmol/L of ethoxyresorufin (CYP1A2), 100 μmol/L of tolbutamide (CYP2C9), […] of S-mephenyloin (CYP2C19), 5 μmol/L of dextromethorphan (CYP2D6), and 1 μmol/L of terfenadine (CYP3A4); reaction time; 15 minutes; reaction temperature: 37° C.; enzyme: pooled human liver microsome 0.2 mg protein/mL; test drug concentration: 1, 5, 10, and 20 μmol/L (4 points).
(§3) In a 96-well plate, as a reaction solution, five kinds of substrates, a human liver microsome, and a test drug were added to 50 mmol/L Hepes buffer solution in the aforementioned ratio. A coenzyme NADPH was added to start a metabolic reaction, which is an index. After reacting at 37° C. for 15 minutes, a solution of methanol/acetonitrile (1/1 (v/v)) was added to quench the reaction. After centrifugation at 3000 rpm for 15 minutes, resorufin (CYP1A2 metabolite) in the supernatant was quantitated with a fluorescence multilabel counter, and hydroxylated tolbutamide (CYP2C9 metabolite), 4′-hydroxylated mephenyloin (CYP2C19 metabolite), […], terfenadine in alcohol form (CYP3A4 metabolite) were quantitated with LC/MS/MS.
(§4) The case wherein only DMSO (a solvent which dissolved a drug) was added to a reaction system was defined as a control (100%). When a test drug solution was added, the remaining activity (%) at each concentration was calculated, and then IC50 was calculated with a concentration and an inhibition ratio by an inverse estimation using a logistic model.

CYP2C19 = molecular target: T2, CYP2C19 (Homo sapiens, UniProt P33261); assay: CYP inhibition test, pooled human liver microsome, CYP2C19; assay type: in vitro ADME; settings: 4′-hydroxylation of mephenyloin
T2 construct: enzyme: pooled human liver microsome 0.2 mg protein/mL; from tissue; host or cells: pooled human liver microsome
Text: as §1, §2, §3, §4

Solubility test = assay type: physicochemical; settings: kinetic from dmso stock; artificial intestinal juice pH 6.8, 1% DMSO, 25° C. for 16 hours
In short: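 Kinetic solubility with 1% DMSO: compound from 10 mmol/L DMSO stock spiked into pH 6.8 phosphate artificial intestinal juice, held 16 h at 25 °C, then suction-filtered. Filtrate diluted twofold in methanol/water (1/1) and quantified by HPLC or LC/MS/MS via absolute calibration.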

T2 sequence (P33261 whole entry): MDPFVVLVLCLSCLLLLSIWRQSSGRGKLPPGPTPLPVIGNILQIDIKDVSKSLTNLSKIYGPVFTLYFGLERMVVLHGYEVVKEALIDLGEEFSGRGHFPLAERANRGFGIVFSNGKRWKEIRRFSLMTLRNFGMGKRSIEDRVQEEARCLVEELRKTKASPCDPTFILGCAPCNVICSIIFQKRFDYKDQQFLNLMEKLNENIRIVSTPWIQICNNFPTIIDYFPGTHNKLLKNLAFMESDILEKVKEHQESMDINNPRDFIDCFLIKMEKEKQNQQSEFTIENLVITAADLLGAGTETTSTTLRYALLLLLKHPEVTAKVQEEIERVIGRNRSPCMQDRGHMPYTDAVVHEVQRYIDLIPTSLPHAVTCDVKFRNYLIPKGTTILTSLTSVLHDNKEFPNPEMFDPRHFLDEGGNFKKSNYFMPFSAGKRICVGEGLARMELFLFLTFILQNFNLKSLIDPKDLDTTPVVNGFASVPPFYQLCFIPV

IC50 (CYP1A2) [µM] | IC50 (CYP2C19) [µM] | solubility at 16 h (Solubility test) [µM] | SMILES
> 20 | > 20 | > 50 | CNC(=O)Nc1cc2n(n1)CCN2c1cc(C(=O)N2CCOCC2)cc(-c2ccc(N)nc2)c1 [Compound I-200]
> 20 | > 20 | > 50 | COc1cc(N2CCc3nc(NC(=O)NCC(=O)O)sc3C2)nc(OC)n1 [Compound I-208]
> 20 | > 20 |  | COc1cc(N2CCc3nc(NC(=O)NCc4cc(=O)[nH]o4)sc3C2)nc(OC)n1 [Compound I-279]
> 20 | > 20 | > 50 | CN1CCc2cc(N3CCn4nc(NC(=O)c5cccnc5)cc43)ccc2C1=O [Compound I-347]

Second part, the compound before the results:

SMILES | IC50 (CYP1A2) [µM] | IC50 (CYP2C19) [µM] | solubility at 16 h (Solubility test) [µM]
CNC(=O)Nc1cc2n(n1)CCN2c1ccc(S(C)(=O)=O)cc1 [Compound I-89] | > 20 | > 20 | 
CNC(=O)Nc1nc2c(s1)CN(c1cc(Cl)nc(N)n1)CC2 [Compound I-118] | > 20 | > 20 | > 50
CNC(=O)Nc1nc2c(s1)CN(c1ccnc(OC)n1)CC2 [Compound I-142] | > 20 | > 20 | > 50
CN1CCc2cc(N3CCn4nc(NC(=O)c5ccco5)cc43)ccc2C1=O [Compound I-358] | > 20 | > 20 | > 50
